# Experimental data as given in paper PMC5447021, “TNF Lectin-Like Domain Restores Epithelial Sodium Channel Function in Frameshift Mutants Associated with Pseudohypoaldosteronism Type 1B” (Frontiers in Immunology, 2017).
# Target: T1, αβγ-hENaC (Homo sapiens, UniProt P37088+P51168+P51170)
# T1 construct: expressed in transfected cells; host or cells: HEK-293
# T1 sequence (P37088 1-669): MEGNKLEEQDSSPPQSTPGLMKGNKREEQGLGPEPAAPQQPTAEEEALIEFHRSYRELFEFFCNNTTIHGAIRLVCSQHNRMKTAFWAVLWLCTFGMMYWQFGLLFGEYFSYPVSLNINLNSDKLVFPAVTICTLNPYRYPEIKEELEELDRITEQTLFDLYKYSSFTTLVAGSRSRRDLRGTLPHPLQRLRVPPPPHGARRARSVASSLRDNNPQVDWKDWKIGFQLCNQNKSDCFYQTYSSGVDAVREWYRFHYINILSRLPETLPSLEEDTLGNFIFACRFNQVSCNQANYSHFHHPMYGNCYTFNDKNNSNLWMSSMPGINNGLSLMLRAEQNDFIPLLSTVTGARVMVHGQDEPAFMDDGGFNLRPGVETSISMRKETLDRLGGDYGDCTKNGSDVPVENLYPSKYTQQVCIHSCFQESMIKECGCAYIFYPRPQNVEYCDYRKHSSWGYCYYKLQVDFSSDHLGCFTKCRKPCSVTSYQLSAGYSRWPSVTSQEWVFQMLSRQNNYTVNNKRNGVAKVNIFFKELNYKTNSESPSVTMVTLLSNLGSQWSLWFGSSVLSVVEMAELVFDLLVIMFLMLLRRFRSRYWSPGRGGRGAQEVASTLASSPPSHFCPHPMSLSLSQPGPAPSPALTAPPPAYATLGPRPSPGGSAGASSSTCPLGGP
# T1 sequence (P51168 1-640 partner): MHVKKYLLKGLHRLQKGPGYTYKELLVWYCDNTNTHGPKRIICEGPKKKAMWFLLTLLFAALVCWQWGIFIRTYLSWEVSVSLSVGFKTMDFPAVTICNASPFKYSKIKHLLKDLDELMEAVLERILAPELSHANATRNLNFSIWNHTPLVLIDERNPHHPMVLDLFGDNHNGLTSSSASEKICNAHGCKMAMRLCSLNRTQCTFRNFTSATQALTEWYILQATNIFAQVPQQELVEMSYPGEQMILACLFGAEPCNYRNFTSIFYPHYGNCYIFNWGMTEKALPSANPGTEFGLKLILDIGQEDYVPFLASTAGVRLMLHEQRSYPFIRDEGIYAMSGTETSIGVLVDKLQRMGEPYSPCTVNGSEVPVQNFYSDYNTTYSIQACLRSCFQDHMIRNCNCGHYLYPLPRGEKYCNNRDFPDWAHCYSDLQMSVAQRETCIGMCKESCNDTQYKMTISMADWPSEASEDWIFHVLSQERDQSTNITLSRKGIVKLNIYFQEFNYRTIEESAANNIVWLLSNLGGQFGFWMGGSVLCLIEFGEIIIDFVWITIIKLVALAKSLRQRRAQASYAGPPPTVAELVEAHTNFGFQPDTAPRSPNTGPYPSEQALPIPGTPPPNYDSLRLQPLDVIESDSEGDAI
# T1 sequence (P51170 1-649 partner): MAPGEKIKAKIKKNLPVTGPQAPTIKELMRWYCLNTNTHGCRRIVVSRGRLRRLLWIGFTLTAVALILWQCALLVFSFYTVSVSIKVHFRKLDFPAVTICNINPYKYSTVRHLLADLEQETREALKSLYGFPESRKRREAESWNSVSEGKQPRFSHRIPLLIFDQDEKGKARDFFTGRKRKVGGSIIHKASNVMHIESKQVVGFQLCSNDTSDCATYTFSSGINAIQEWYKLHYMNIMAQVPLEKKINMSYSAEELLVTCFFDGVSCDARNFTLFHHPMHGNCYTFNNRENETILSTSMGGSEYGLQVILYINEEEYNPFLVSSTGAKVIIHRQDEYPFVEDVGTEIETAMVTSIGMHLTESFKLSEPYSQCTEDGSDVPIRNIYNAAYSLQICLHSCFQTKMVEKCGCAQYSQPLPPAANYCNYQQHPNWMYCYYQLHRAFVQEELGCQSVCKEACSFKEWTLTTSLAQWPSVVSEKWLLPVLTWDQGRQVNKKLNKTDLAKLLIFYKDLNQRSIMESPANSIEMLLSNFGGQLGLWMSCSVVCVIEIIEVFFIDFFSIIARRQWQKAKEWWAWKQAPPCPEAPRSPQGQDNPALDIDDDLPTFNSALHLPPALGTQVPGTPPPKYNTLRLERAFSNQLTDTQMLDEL
# Assay: Whole-cell patch clamp, WT αβγ-hENaC
# Type: cell-based
# Conditions: exposure time, WT αβγ-ENaC (Figure 1)
# Procedure: Point mutations of α-, β-, γ- and δ-hENaC and PHA1B frameshift mutations of α-hENaC were prepared with the QuikChange Lightning Site-Directed Mutagenesis Kit (Agilent Technologies, CA, USA). Mutagenic primers were designed individually with the Primer Design Program provided on the producer’s website or for the frameshift mutations the same base changes as reported in patients (see Table 2) were performed. Primers were ordered from Sigma-Aldrich, Vienna, Austria.
# HEK-293 cells were transfected 1 day after cell seeding using X-tremeGENE HP DNA transfection reagent (Roche Diagnostics, Mannheim, Germany) according to the manufacturer’s protocol. A set of WT or mutant αβγ- or δβγ-hENaC, or α-, β-, γ-, or δ-hENaC alone was used, and the ratio of DNA to transfection reagent was 1:3. The expression was highest 48–72 h after transfection.
# Electrophysiological experiments were performed as described in detail by Shabbir et al. ([16]). […] Currents were recorded with the patch clamp method in the whole-cell mode. The chamber contained 1 ml of the bath solution of the following composition (in mM): 145 NaCl, 2.7 KCl, 1.8 CaCl2, 2 MgCl2, 5.5 glucose, and 10 HEPES, adjusted to pH 7.4 with 1 M NaOH solution. Micropipettes were pulled from thin-walled borosilicate glass capillaries (Harvard Apparatus, Holliston, MA, USA) with a DMZ Zeitz Puller to obtain electrode resistances ranging from 2 to 5 MΩ. The pipette solution contained (in millimolars): 135 potassium methane sulfonate, 10 KCl, 6 NaCl, 1 Mg2ATP, 2 Na3ATP, 10 HEPES, and 0.5 EGTA, adjusted to pH 7.2 with 1 M KOH solution. Chemicals for pipette and bathing solutions were supplied by Sigma-Aldrich (Vienna, Austria). Electrophysiological measurements were carried out with an Axopatch 200B patch clamp amplifier (Axon Instruments, CA, USA). Capacity transients were canceled, and series resistance was compensated. Whole-cell currents were filtered at 5 kHz and sampled at 10 kHz. Data acquisition and storage were processed directly to a PC equipped with pCLAMP 10.2 software (Axon Instruments, CA, USA). […]
smiles,measurement,value
"C[C@@H]1NC(=O)CNC(=O)[C@H](CCC(=O)O)NC(=O)[C@@H]2CCCN2C(=O)[C@H]([C@@H](C)O)NC(=O)[C@H](CCC(=O)O)NC(=O)[C@H](CCCNC(=N)N)NC(=O)[C@H](CCC(N)=O)NC(=O)CNC(=O)[C@@H](N)CSSC[C@@H](C(=O)O)NC(=O)[C@H](Cc2ccc(O)cc2)NC(=O)[C@H](Cc2c[nH]c3ccccc23)NC(=O)[C@@H]2CCCN2C(=O)[C@H](CCCCN)NC(=O)[C@H](C)NC(=O)[C@H](CCC(=O)O)NC1=O [solnatide, L-cysteine, L-cysteinylglycyl-L-glutaminyl-L-arginyl-L-α-glutamyl-L-threonyl-L-prolyl-L-α-glutamylglycyl-L-alanyl-L-α-glutamyl-L-alanyl-L-lysyl-L-prolyl-L-tryptophyl-L-tyrosyl-, cyclic (1→17)-disulfide]",Time to maximal stimulatory effect,~ 2 min
